The record followed here is patent publication US8822517B2, “Arylosulfonamides for the treatment of CNS diseases” (Adamed SP. Z O.O., priority 2010, dated 2014).

Experiment [1] addresses T1, serotoninergic 5-HT1A receptor (Homo sapiens, UniProt P08908).
T1 sequence (P08908 1-422): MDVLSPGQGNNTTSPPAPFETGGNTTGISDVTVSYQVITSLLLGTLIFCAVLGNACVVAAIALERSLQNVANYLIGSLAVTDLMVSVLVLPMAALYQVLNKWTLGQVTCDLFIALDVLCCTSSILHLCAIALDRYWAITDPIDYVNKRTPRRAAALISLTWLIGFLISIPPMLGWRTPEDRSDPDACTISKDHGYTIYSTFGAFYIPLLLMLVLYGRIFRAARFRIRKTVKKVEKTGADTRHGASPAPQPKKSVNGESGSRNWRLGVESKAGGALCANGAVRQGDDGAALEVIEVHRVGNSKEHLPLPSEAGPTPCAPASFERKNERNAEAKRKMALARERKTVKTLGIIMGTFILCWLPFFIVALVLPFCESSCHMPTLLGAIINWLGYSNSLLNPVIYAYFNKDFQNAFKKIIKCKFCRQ
In words: Binding assay 5-HT1A (h), [3H]8-OH-DPAT, HEK-293 cells. On the set-up: expressed in transfected cells; host or cells: HEK-293 cells. The note with it: read-out: 5-HT1A. On the procedure:
(§1) The specific ligand binding to the receptors is defined as the difference between the total binding and the nonspecific binding determined in the presence of an excess of so unlabelled ligand.
(§2) The specific Ligand binding to the receptor is defined as the difference between total and non-specific binding determined in the presence of an excess of unlabelled ligand. The compounds were tested at a concentration of 1×10^−6 M, and scintillation counting was the method of detection of ligand binding.

The target of a further experiment is dopaminergic D3 receptor (Homo sapiens, UniProt P35462). Put plainly: Binding assay D3 (h), [3H]methyl-spiperone, CHO cells. On the set-up: expressed in transfected cells; host or cells: CHO cells. Conditions: read-out: D3 [%]. As for the experimental part: as §1, §2
Chain of dopaminergic D3 receptor (P35462 whole entry): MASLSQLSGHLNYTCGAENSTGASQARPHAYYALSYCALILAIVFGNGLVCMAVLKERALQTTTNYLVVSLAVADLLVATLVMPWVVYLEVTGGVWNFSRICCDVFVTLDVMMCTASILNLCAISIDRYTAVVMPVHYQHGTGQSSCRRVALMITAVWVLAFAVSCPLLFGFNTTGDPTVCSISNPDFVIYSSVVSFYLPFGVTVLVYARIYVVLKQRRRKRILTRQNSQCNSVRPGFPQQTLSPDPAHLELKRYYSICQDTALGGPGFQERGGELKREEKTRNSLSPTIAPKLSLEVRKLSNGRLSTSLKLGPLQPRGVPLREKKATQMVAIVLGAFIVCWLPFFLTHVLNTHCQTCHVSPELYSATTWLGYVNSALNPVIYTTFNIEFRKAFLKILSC
For another experiment, the target named is dopaminergic D2 receptor (Homo sapiens, UniProt P14416). In words: Binding assay D2S (h), [3H]methyl-spiperone, HEK-293 cells. Conditions: read-out: D2 [%]. On the set-up: expressed in transfected cells; host or cells: HEK-293 cells. As for the experimental part:
as §1, §2

Experiment [2] concerns the target serotoninergic 5-HT6 receptor (Homo sapiens, UniProt P50406). In words: Binding assay 5-HT6 (h), [3H]LSD, CHO cells. The note with it: read-out: 5-HT6. On the set-up: expressed in transfected cells; host or cells: CHO cells. As for the experimental part: as §1, §2
The target of experiment [3] is T2, serotonine transporter (SERT) receptor (Homo sapiens, UniProt P31645).
T2 construct: expressed in transfected cells; host or cells: CHO cells
T2 sequence (P31645 whole entry): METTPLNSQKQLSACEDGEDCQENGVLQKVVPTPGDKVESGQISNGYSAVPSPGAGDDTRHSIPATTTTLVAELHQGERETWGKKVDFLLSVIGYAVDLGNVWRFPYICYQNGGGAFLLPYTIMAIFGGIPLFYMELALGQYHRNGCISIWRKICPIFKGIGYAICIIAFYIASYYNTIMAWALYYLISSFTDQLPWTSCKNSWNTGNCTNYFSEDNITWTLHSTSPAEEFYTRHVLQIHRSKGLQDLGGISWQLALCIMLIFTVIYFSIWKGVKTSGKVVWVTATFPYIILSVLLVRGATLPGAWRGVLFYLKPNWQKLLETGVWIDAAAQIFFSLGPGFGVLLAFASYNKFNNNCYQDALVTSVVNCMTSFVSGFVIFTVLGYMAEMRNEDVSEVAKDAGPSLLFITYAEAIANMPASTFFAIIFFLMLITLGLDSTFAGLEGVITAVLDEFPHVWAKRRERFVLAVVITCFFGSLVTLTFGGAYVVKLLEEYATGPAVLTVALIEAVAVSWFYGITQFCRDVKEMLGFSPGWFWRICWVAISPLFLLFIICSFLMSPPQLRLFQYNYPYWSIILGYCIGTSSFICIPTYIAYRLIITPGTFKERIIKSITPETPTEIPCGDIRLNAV
Put plainly: Binding assay SERT (h), [3H]imipramine, CHO cells. Conditions: read-out: SERT [%]. As for the experimental part:
as §1, §2

The target in experiment [4] is serotoninergic 5-HT7 receptor (Homo sapiens, UniProt P34969). Put plainly: Binding assay 5-HT7 (h), [3H]LSD, CHO cells. The note with it: read-out: 5-HT7. On the set-up: expressed in transfected cells; host or cells: CHO cells. On the procedure:
as §1, §2

For experiment [5], the target named is serotoninergic 5-HT2A receptor (Homo sapiens, UniProt P28223). In words: Binding assay 5-HT2A (h), [3H]ketanserin, HEK-293 cells. Conditions: read-out: 5-HT2A. On the set-up: expressed in transfected cells; host or cells: HEK-293 cells. As for the experimental part: as §1, §2
Chain of serotoninergic 5-HT2A receptor (P28223 whole entry): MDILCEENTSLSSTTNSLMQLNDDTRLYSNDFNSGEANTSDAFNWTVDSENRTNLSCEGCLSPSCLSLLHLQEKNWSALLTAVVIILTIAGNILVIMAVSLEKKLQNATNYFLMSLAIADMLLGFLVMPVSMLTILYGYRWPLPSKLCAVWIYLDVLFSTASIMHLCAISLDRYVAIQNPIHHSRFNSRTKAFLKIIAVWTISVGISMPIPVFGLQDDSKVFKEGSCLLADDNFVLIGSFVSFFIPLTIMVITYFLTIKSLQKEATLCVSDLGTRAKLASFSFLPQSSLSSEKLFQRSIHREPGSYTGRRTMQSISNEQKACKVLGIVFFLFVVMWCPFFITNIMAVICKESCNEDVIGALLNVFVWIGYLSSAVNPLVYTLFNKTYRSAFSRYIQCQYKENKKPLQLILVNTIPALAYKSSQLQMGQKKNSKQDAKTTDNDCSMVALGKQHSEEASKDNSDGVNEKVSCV
The next experiment concerns adrenergic α1 receptor. Put plainly: Binding assay α1 (non-selective), [3H]prazosin, rat cerebral cortex. Conditions: percent inhibition of control specific binding; compounds tested at 1×10^−6 M. As for the experimental part:
as §1, §2

Chain of serotoninergic 5-HT7 receptor (P34969 whole entry): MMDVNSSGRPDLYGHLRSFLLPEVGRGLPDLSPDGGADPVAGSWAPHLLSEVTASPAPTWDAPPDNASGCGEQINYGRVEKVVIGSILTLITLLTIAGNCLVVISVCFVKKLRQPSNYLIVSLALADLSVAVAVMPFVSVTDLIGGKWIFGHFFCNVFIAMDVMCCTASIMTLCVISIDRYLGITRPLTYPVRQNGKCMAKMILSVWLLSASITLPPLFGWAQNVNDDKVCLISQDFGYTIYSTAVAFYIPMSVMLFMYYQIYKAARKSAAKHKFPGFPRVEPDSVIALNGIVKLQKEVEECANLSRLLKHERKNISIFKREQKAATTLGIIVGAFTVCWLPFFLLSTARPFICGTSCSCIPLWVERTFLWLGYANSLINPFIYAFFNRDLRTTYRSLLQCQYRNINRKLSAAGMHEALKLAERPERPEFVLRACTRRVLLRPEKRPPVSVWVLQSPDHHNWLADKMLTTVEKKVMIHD
Chain of serotoninergic 5-HT6 receptor (P50406 whole entry): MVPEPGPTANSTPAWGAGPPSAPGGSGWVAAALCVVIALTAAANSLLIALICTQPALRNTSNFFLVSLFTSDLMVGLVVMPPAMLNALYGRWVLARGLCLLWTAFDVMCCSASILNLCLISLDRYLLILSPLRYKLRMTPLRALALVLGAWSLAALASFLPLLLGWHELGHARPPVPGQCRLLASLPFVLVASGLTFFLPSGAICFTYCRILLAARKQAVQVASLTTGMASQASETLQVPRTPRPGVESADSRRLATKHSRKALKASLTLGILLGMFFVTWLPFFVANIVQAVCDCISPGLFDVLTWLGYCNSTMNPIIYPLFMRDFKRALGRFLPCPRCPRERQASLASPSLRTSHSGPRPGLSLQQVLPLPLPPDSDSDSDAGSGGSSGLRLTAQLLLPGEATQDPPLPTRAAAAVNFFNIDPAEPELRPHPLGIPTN
Chain of dopaminergic D2 receptor (P14416 1-414 isoform P14416-2): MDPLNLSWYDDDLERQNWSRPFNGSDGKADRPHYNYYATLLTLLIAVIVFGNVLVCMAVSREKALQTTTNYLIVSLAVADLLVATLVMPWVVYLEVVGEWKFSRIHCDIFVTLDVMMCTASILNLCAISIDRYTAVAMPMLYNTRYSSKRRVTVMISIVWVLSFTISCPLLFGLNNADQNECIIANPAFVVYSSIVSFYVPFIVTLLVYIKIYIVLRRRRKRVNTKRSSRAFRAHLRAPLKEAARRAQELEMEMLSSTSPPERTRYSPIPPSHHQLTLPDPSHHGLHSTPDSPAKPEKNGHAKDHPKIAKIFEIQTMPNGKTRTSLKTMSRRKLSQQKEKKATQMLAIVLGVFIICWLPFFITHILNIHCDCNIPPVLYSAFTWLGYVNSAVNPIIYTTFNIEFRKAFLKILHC

In the case of `Cc1[nH]c2ccc(Cl)cc2c1C1=CCN(CCCCNS(=O)(=O)c2ccc(F)cc2)CC1` [Compound 368, N-[4-[4-(5-Chloro-2-methyl-1H-indol-3-yl)-3,6-dihydro-2H-pyridin-1-yl]butyl]-4-fluorobenzenesulphonamide], the inhibition at 1 µM was -7% in experiment [1]; 94% on dopaminergic D3 receptor; 41% on dopaminergic D2 receptor; 96% in experiment [2]; 14% in experiment [3]; 42% in experiment [4]. The inhibition at 1 µM in experiment [5] was 64%.

On to `O=S(=O)(NCCCN1CCC(c2noc3cc(F)ccc23)CC1)c1ccc(Cl)cc1` [Compound 328, 4-Chloro-N-[3-[4-(6-fluoro-1,2-benzoxazol-3-yl)piperidin-1-yl]propyl]benzenesulphonamide], for which the inhibition at 1 µM worked out at 58% in experiment [1]; 99% on dopaminergic D3 receptor; 108% at dopaminergic D2 receptor; 87% in experiment [2]; 7% in experiment [3]; 92% in experiment [4]. Besides, the inhibition at 1 µM in experiment [5] turned out to be 90%.

As to `O=S(=O)(NCCCCN1CC=C(c2c[nH]c3ccc(F)cc23)CC1)c1cccc(O)c1` [Compound 434, N-[4-[4-(5-Fluoro-1H-indol-3-yl)-3,6-dihydro-2H-pyridin-1-yl]butyl]-3-hydroxybenzenesulphonamide], the inhibition at 1 µM on dopaminergic D3 receptor was 98%.

With `O=S(=O)(NCCCN1CCC(c2noc3cc(F)ccc23)CC1)c1cccc(Br)c1` [Compound 110, 3-Bromo-N-[3-[4-(6-fluoro-1,2-benzoxazol-3-yl)piperidin-1-yl]propyl]benzenesulphonamide], the inhibition at 1 µM came out at 55% in experiment [1]; 97% at dopaminergic D3 receptor; 109% on dopaminergic D2 receptor; 96% in experiment [2]; 8% in experiment [3]; 91% in experiment [4]. The inhibition at 1 µM in experiment [5] came to 99%.

`O=S(=O)(NCCCN1CCC(c2noc3cc(F)ccc23)CC1)c1ccc(Br)cc1` [Compound 330, 4-Bromo-N-[3-[4-(6-fluoro-1,2-benzoxazol-3-yl)piperidin-1-yl]propyl]benzenesulphonamide]: the inhibition at 1 µM in experiment [1] is 67%; on dopaminergic D3 receptor, 99%; at dopaminergic D2 receptor, 108%; in experiment [2] it was 83%; in experiment [3], -2%; in experiment [4], 90%. Besides, the inhibition at 1 µM in experiment [5] amounted to 93%.

`Cc1c(S(=O)(=O)NCCCN2CCC(c3noc4cc(F)ccc34)CC2)sc2ccc(Cl)cc12` [Compound 348, 5-Chloro-N-[3-[4-(6-fluoro-1,2-benzoxazol-3-yl)piperidin-1-yl]propyl]-3-methylbenzothiophene-2-sulphonamide]: the inhibition at 1 µM in experiment [1] came out at 36%; on dopaminergic D3 receptor it was 102%; at dopaminergic D2 receptor it was 104%; in experiment [2] it was 96%; in experiment [3], 6%; in experiment [4], 87%. Besides, in experiment [5], the inhibition at 1 µM worked out at 107%.

On to `O=c1[nH]c2cccc(N3CCN(CCCCNS(=O)(=O)c4cccc(Cl)c4)CC3)c2[nH]1` [Compound 173, 3-Chloro-N-[4-[4-(2-oxo-1,3-dihydrobenzimidazol-4-yl)piperazin-1-yl]butyl]benzenesulphonamide], for which the inhibition at 1 µM at dopaminergic D3 receptor amounted to 98%. Moreover, in the experiment on adrenergic α1 receptor, the “α1 [%]” value worked out at 89%.

In the case of `O=S(=O)(NCCCN1CCN(c2nsc3ccccc23)CC1)c1ccc(Cl)cc1` [Compound 250, N-[3-[4-(1,2-Benzothiazol-3-yl)piperazin-1-yl]propyl]-4-chlorobenzenesulphonamide], the inhibition at 1 µM in experiment [1] was 98%; at dopaminergic D3 receptor it was 85%; at dopaminergic D2 receptor it was 97%; in experiment [2], 73%; in experiment [3], 23%; in experiment [4], 88%. Besides, the inhibition at 1 µM in experiment [5] was 92%.

For the molecule `O=c1[nH]c2cccc(N3CCN(CCCCNS(=O)(=O)c4ccc(Cl)cc4)CC3)c2[nH]1` [Compound 421, 4-Chloro-N-[4-[4-(2-oxo-1,3-dihydrobenzimidazol-4-yl)piperazin-1-yl]butyl]benzenesulphonamide], the inhibition at 1 µM on dopaminergic D3 receptor was 94%. The “α1 [%]” value in the experiment with adrenergic α1 receptor is given as 88%.

Take `O=S(=O)(NCCCN1CC=C(c2c[nH]c3ccc(F)cc23)CC1)c1cccc(F)c1` [Compound 436, 3-Fluoro-N-[3-[4-(5-fluoro-1H-indol-3-yl)-3,6-dihydro-2H-pyridin-1-yl]propyl]benzenesulphonamide]: the inhibition at 1 µM came out at 85% in experiment [1], 96% on dopaminergic D3 receptor and 56% in experiment [5].

As for `Cc1cccc(S(=O)(=O)NCCCCN2CCN(c3cccc4[nH]c(=O)[nH]c34)CC2)c1` [Compound 422, 3-Methyl-N-[4-[4-(2-oxo-1,3-dihydrobenzimidazol-4-yl)piperazin-1-yl]butyl]benzenesulphonamide], on dopaminergic D3 receptor, the inhibition at 1 µM is 98%. In the experiment on adrenergic α1 receptor, the “α1 [%]” value was determined as 86%.

With `O=c1[nH]c2cccc(N3CCN(CCCCNS(=O)(=O)c4ccc(F)cc4)CC3)c2[nH]1` [Compound 420, 4-Fluoro-N-[4-[4-(2-oxo-1,3-dihydrobenzimidazol-4-yl)piperazin-1-yl]butyl]benzenesulphonamide], the inhibition at 1 µM at dopaminergic D3 receptor was determined as 97%. Also, the “α1 [%]” value in the experiment on adrenergic α1 receptor came to 82%.

Consider `O=S(=O)(NCCCN1CCN(c2cccc3c2OCCO3)CC1)c1ccc(F)c(F)c1` [Compound 410, N-[3-[4-(2,3-Dihydro-1,4-benzodioxin-5-yl)piperazin-1-yl]propyl]-3,4-difluorobenzenesulphonamide], for which the inhibition at 1 µM in experiment [1] was 96%; in experiment [5] it was 42%. In the experiment with adrenergic α1 receptor, the “α1 [%]” value amounted to 84%.

On to `O=c1[nH]c2cccc(N3CCN(CCCCNS(=O)(=O)c4cccc(F)c4)CC3)c2[nH]1` [Compound 175, 3-Fluoro-N-[4-[4-(2-oxo-1,3-dihydrobenzimidazol-4-yl)piperazin-1-yl]butyl]benzenesulphonamide], for which, on dopaminergic D3 receptor, the inhibition at 1 µM was 87%. For the same molecule, in the experiment on adrenergic α1 receptor, the “α1 [%]” value stood at 82%.

As to `O=S(=O)(NCCCCN1CCN(c2cccc3c2OCCO3)CC1)c1cccs1` [Compound 397, N-[4-[4-(2,3-Dihydro-1,4-benzodioxin-8-yl)piperazin-1-yl]butyl]thiophene-2-sulphonamide], the inhibition at 1 µM in experiment [1] amounted to 95%; in experiment [5] it was 13%. Besides, in the experiment with adrenergic α1 receptor, the “α1 [%]” value worked out at 92%.

`O=S(=O)(NCCCN1CCC(c2noc3cc(F)ccc23)CC1)c1ccc(Cl)s1` [Compound 341, 5-Chloro-N-[3-[4-(6-fluoro-1,2-benzoxazol-3-yl)piperidin-1-yl]propyl]thiophene-2-sulphonamide]: the inhibition at 1 µM in experiment [1] was found to be 74%; on dopaminergic D3 receptor, 98%; on dopaminergic D2 receptor, 98%; in experiment [2] it was 93%; in experiment [3], 8%; in experiment [4], 78%. The inhibition at 1 µM in experiment [5] is 102%.

For `O=S(=O)(NCCCN1CCN(c2cccc3c2OCCO3)CC1)c1cccc(Br)c1` [Compound 413, 3-Bromo-N-[3-[4-(2,3-dihydro-1,4-benzodioxin-5-yl)piperazin-1-yl]propyl]benzenesulphonamide], the inhibition at 1 µM in experiment [1] worked out at 88%; in experiment [5], 40%. In addition, in the experiment with adrenergic α1 receptor, the “α1 [%]” value was 90%.

As for `O=S(=O)(NCCCN1CCC(c2noc3cc(F)ccc23)CC1)c1cccc(Cl)c1` [Compound 106, 3-Chloro-N-[3-[4-(6-fluoro-1,2-benzoxazol-3-yl)piperidin-1-yl]propyl]benzenesulphonamide], the inhibition at 1 µM stood at 63% in experiment [1]; 97% on dopaminergic D3 receptor; 108% on dopaminergic D2 receptor; 93% in experiment [2]; 2% in experiment [3]; 91% in experiment [4]. The inhibition at 1 µM in experiment [5] was 97%.
